Results: US20040019118A1, “NMDA receptor antagonists and their use in inhibiting abnormal hyperphosphorylation of microtubule associated protein tau” (priority 2002, published 2004)
Entries after “also recorded” stand apart in the source; their conditions may differ. Like-named read-outs stand apart in the source and are kept apart here.

Columns and labels:
PP-2A = target: T1, PP-2A (Rattus norvegicus, UniProt P63331); test: PP-2A activity in extracts of treated hippocampal slice cultures; type: cell-based
T1 construct: from tissue; host or cells: organotypic culture of adult rat hippocampal slices; 16,000xg extract
T1 sequence (P63331 whole entry): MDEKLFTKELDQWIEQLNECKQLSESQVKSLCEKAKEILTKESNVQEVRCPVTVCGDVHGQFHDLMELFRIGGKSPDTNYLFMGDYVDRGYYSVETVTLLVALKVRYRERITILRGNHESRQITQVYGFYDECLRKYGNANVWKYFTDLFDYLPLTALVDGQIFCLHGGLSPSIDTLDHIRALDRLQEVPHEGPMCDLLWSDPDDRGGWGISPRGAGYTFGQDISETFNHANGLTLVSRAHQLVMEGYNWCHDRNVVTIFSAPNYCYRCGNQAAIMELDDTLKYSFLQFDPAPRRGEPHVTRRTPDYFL
Method: (§1) Organotypic cultures of rat hippocampal slices were prepared from 20-30 day old Wistar rats and cultured with the interface method as described previously (Stoppini, et al. 1991; Bahr, et al. 1995; Zhongrin, et al. 2000). The rats were anesthetized with ketamine (100 mg/kg body weight) and decapitated and the hippocampi were dissected out and sliced into 400 um coronal sections by a McIllwain tissue chopper. Select slices with uninterrupted bright transparent neuronal layers were plated, 1-3 slices/filter, onto Millicell CM filters (Millipore, Bedford, Mass.). For the first 2 days in vitro (DIV) cultures were maintained in 25% horse serum, 50% Basal Media-Eagle (BEM), 25% Eagle's Balanced Salt Solution (EBSS), 25 mM HEPES, 1 mM glutamine, 28 mM glucose, pH 7.2, at 32° C. in a 5% CO2 humidified atmosphere. The slice cultures were then switched to 25% horse serum, 50% BEM and EBSS modified so that the potassium concentration was 2.66 mM, for another 5 DIV. After 7 DIV, the cultures were maintained in physiological potassium containing 5% horse serum medium at 35° C. for at least 20 days before any treatment was applied. When the slices were treated, the reagents were applied into the culture medium. At different time points, the slices collected with a brush were washed twice in homogenizing buffer (50 mM HEPES, pH 7.0, 10 mM β-merceptoethanol [BME], 1 mM EDTA, 1 mM EGTA, 0.1 mM phenylmethyl sulfonyl fluoride [PMSF], 2.0 mM benzamidine and 2.0 μg/ml each of aprotinin, leupeptin and pepstatin) and homogenized at 4° C. using a Teflon-glass homogenizer. The homogenate was then divided into two parts, one was centrifuged at 16000×g for 15 min and the supernatant was used to assay activities of PP-2A and PP-1. The rest of the homogenate was diluted 1:1 with a phosphatase inhibitor cocktail (20 mM β-glycerophosphate, 2 mM Na3VO4 and 100 mM NaF, pH 7.0) and either used for Western blots or centrifuged at 16000×g for 15 min and the resulting supernatant used to determine the kinase activities.
Activities of PP-2A and PP-1 were assayed towards [^32P] phosphorylase-a as a substrate as described previously (Gong, et al. 1994). The phosphatase activity was assayed in 20 μl of reaction mixture containing 50 mM Tris, pH 7.0, 10 mM BME, 0.1 mM EDTA, 7.5 mM caffeine, 7.5 ng/μl [^32P]phosphorylase-a and 0.06 mg/ml slice culture extract. The reaction was started by adding ^32P-phosphorylase-a. After incubation for 30 min at 30° C., 7 μl of the reaction mixture was spotted on to 31 ETCHR chromatography paper which had been prespotted with 10 μl stop solution (4 mM ATP+20% TCA). Then the ^32p released was separated from the protein-incorporated ^32P by paper chromatography in 5% TCA and 0.2 M NaCl, paper strips dried, cut and counted by Cerenkov radiation. A PP-1 specific inhibitor, inhibitor-1 (Hitken, et al. 1982) was included in the assays for PP-2A activity. PP-1 activity was calculated by subtracting the PP-2A activity from the total phosphorylase-a phosphatase activity (PP-1/PP-2A) assayed in the absence of inhibitor-1.

CaMKII = CaMKII activity in extracts of treated hippocampal slice cultures; type: cell-based, rat
Method: as §1
CaMKII activity was measured in 25 μl of buffer containing 50 mM HEPES, pH 7.5, 10 mM MgCl2, 2.0 mM CaCl2, 10 mM BME, 10 μg/ml calmodulin (CaM), 20 μM syntide (Sigma, St Louis Mo., USA), 0.06 mg/ml slice extract and 200 μM [γ^32P]ATP. The reaction was initiated by adding [γ32p] ATP. After incubation for 10 min at 30° C., 10 μl reaction mixture was removed and spotted on to phosphocellulose membrane. The membrane was then washed five times in 1% phosphoric acid to remove non-protein incorporated ^32P, dried and counted by Cerenkov radiation. The activity of PKA was determined as above except the reaction mixture contained 70 mM NaHPO4, pH 6.8, 14 mM MgCl2, 1.4 mM EDTA, 30 μM malantide (Sigma, St Louis, Mo., USA), 200 μM [γ^32p] ATP and 0.06 mg/ml slice extract.

GSK-3 = GSK-3 activity in extracts of treated hippocampal slice cultures; type: cell-based, rat
Method: (§2) Organotypic cultures of rat hippocampal slices were prepared from 20-30 day old Wistar rats and cultured with the interface method as described previously (Stoppini, et al. 1991; Bahr, et al. 1995; Zhongrin, et al. 2000). The rats were anesthetized with ketamine (100 mg/kg body weight) and decapitated and the hippocampi were dissected out and sliced into 400 um coronal sections by a McIllwain tissue chopper. Select slices with uninterrupted bright transparent neuronal layers were plated, 1-3 slices/filter, onto Millicell CM filters (Millipore, Bedford, Mass.). For the first 2 days in vitro (DIV) cultures were maintained in 25% horse serum, 50% Basal Media-Eagle (BEM), 25% Eagle's Balanced Salt Solution (EBSS), 25 mM HEPES, 1 mM glutamine, 28 mM glucose, pH 7.2, at 32° C. in a 5% CO2 humidified atmosphere. The slice cultures were then switched to 25% horse serum, 50% BEM and EBSS modified so that the potassium concentration was 2.66 mM, for another 5 DIV. After 7 DIV, the cultures were maintained in physiological potassium containing 5% horse serum medium at 35° C. for at least 20 days before any treatment was applied. When the slices were treated, the reagents were applied into the culture medium. […]

[1] = system: tau phosphorylated at Ser-262; test: Immunohistochemical staining of tau phosphorylated at Ser 262 in cultured hippocampal slices; type: cell-based, rat; settings: 100 nM OA 24 h
Method: as §2, with “DIV.” for “DIV. After 7 DIV, the cultures were maintained in physiological potassium containing 5% horse serum medium at 35° C. for at least 20 days before any treatment was applied. When the slices were treated, the reagents were applied into the culture medium.”
After different treatments some of the hippocampal slices were fixed in periodate/lysine/paraformaldehyde solution (Mclean, et al. 1974) at 33° C. for 5 h and then kept in 1% Triton-x-100 in PBS (pH 7.4) for 72 h at room temperature to improve the penetration of the antibodies. […] Peroxidase was detected using 0.05% diaminobenzidine (DAB) and H2O2 (0.01%) for 10 min.

[2] = 100 nM OA plus 10 μM Memantine 24 h, or OA 24 h, wash, then Memantine 24 h
[3] = 100 nM OA, 10 μM Memantine, 24 h
[4] = Memantine 10 to 30 μM, or 24 h to 48 h

C=C1[C@@H](O)[C@@H]2O[C@]3(CC[C@H](/C=C/[C@@H](C)[C@@H]4CC(C)=C[C@@]5(O[C@H](C[C@@](C)(O)C(=O)O)CC[C@H]5O)O4)O3)CC[C@H]2O[C@@H]1[C@@H](O)C[C@H](C)[C@H]1O[C@@]2(CCCCO2)CC[C@H]1C [OA, Okadaic Acid]
inhibition (decrease) of PP-2A activity (PP-2A; 100 nM OA, 24 h): ~40% | inhibition (decrease) of PP-2A activity (PP-2A; 1000 nM (1 μM) OA, 48 h, 1 µM): ~75% | inhibition at 0.1 µM (PP-2A; read-out: inhibition (decrease) of PP-2A activity, 100 nM OA, 24 h): 42% | inhibition at 1 µM (PP-2A; read-out: inhibition (decrease) of PP-2A activity, 1000 nM (1 μM) OA, 48 h): 78% | inhibition at 0.01 µM (PP-2A; read-out: inhibition of PP-2A activity, 10 nM OA, 24 h): ~20% | inhibition at 1 µM (PP-2A; read-out: inhibition of PP-2A activity, 1 μM OA, 24 h): ~65% | increase in CaMKII activity (CaMKII; 10 nM OA, 24 h): ~20% | CaMKII activity as % of control (CaMKII; 100 nM OA, 24 h): 180% | increase in CaMKII activity (CaMKII; 100 nM OA, 24 h): ~70% | increase in CaMKII activity (CaMKII; 1,000 nM OA, 24 h): ~140% | CaMKII activity as % of control (CaMKII; 1000 nM OA, 24 h): 240% | change in CaMKII activity (CaMKII; OA-treated slice cultures): marked increase | change in GSK-3 activity (GSK-3; OA-treated slice cultures): no significant change; also recorded: neither OA nor Memantine had any significant effect; also recorded: no significant alteration | pS262 positive cells / p-Ser-262 staining ([1]; then medium 24 h): increased markedly; also recorded: marked increase

CC12CC3CC(C)(C1)CC(N)(C3)C2 [Memantine, 1-amino-3,5-dimethyl adamantane]
restoration of OA-inhibited PP-2A activity (PP-2A; 100 nM OA and 1, 10 or 30 μM Memantine, 3-48 h (FIG. 2a), p<0.02): restored the OA-inhibited PP-2A activity to normal level | restoration of PP-2A activity (PP-2A; [2]): restored the PP-2A activity to normal level; also recorded: almost completely restored; also recorded: restored the activities of both PP-2A and CaMKII | restoration of OA-inhibited PP-2A activity (PP-2A; [3]): practically completely restored; also recorded: restored the OA-induced changes in the activities of PP-2A, CaMKII and PKA to normal levels | restoration of OA-inhibited PP-2A activity (PP-2A; 5 μM compound): restoration | additional effect on restoration of PP-2A activity (PP-2A; [4]): Neither increase of Memantine from 10 μM to 30 μM nor duration of the treatment from 24 h to 48 h resulted in any significant additional effect | concentration giving full effect on restoration of PP-2A activity (PP-2A; OA-treated slices): 10 µM | lowest concentration at which restoration of PP-2A activity was observed (PP-2A; OA-treated slices): 1 µM | effect on PP-2A activity (PP-2A; after 0.3 mM glutamate 1 h, 10 μM Memantine or 15 μM MK801): no effect | effect on PP-2A activity in control (untreated) slices (PP-2A; no OA): no significant effect | restoration of OA-stimulated CaMKII activity (CaMKII; 100 nM OA and 1, 10 or 30 μM Memantine, 3-48 h (FIG. 2b), p<0.02): restored the OA-stimulated CaMKII activity to normal level | restoration of CaMKII activity (CaMKII; [2]): Restoration of CaMKII activity; also recorded: almost completely restored; also recorded: restored the activities of both PP-2A and CaMKII | restoration of OA-stimulated CaMKII activity (CaMKII; [3]): restored the OA-induced changes in the activities of PP-2A, CaMKII and PKA to normal levels; also recorded: practically completely restored | additional effect on restoration of CaMKII activity (CaMKII; [4]): Neither increase of Memantine from 10 μM to 30 μM nor duration of the treatment from 24 h to 48 h resulted in any significant additional effect | concentration giving full effect on restoration of CaMKII activity (CaMKII; OA-treated slices): 10 µM | lowest concentration at which restoration of CaMKII activity was observed (CaMKII; OA-treated slices): 1 µM | CaMKII activity after replacement of glutamate (CaMKII; after 0.3 mM glutamate, fresh medium with or without 10 μM Memantine or 15 μM MK801): restored the CaMKII activity to normal level | effect on CaMKII activity in control (untreated) slices (CaMKII; no OA): no significant effect | effect on GSK-3 activity (GSK-3; Memantine in OA-treated cultures): neither OA nor Memantine had any significant effect; also recorded: no significant effect | pS262 positive cells / p-Ser-262 immunostaining ([1]; then 10 μM Memantine 24 h): decreased dramatically; also recorded: markedly decreased; also recorded: restored in large part
